The structures appear in SMILES notation.

A short description of series [1]: Growth promoting activity / feed utilization in livestock (general statements). In kind it is in vivo.
For series [2], the system named is Isolated Swine Adipocytes. The series is described as follows: Stimulation of lipolysis (glycerol production) in isolated swine adipocytes. Type of series: cell-based. To be noted: Sus scrofa, Adipocyte, 2 h, Test 1, read-out: percent increase compared to control, glycerol production. As to the method: (§1) Fat was collected from freshly killed animals as follows: epididymal and perirenal fat from 150 to 200 g male rates; perirenal fat from 20 to 25 kg whether lambs, and perirenal and omental fat from 35 to 50 kg gilts. Immediately after collection, fat was placed in a siliconized beaker (all glassware was siliconized) containing Krebs-Ringer bicarbonate solution (KRB; pH 7.4) at 37° C. Fat was transferred to a clean beaker and finely chopped with scissors. Chopped fat was then used as such (whole adipose preparation) or treated with collagenase (isolated adipocytes).
(§2) Chopped fat was placed in a shaker containing 70 ml cell dispersion medium (CDM; 5 mM glucose, 0.1% collagenase, 4% bovine serum albumin (BSA), in KRB) and incubated at 37° C. for 1 hour with gentle shaking. Fat was then filtered to remove clumps and washed 4 times with washing medium (WM; 2.5 mM glucose, 1% BSA, in KRB) and 1 time with final suspension medium (FSM; 2.5 mM glucose, 2% essentially fatty acid free BSA, in KRB). Isolated adipocytes were then resuspended in the required amount of FSM (1 ml/flask, 3 flasks/treatment).
(§3) Whole adipose tissue from the rat (0.3 ml) or isolated adipocytes from sheep or swine (1 ml) were placed in plastic scintillation vials containing FSM (1.7 or 1 ml, respectively) and test compounds, and incubated at 37° C. for 2 hours. […] Isoproterenol, at the same concentrations, was used as a positive control. After incubation, media was removed and assayed for glycerol by a fluorometric modification of the method of Wieland (1974. Glycerol UV-method. pp. 1404. In: Bergmeyer (Ed.) Methods of Enzymatic Analysis. Verlag Chemie Weinham, Academic Press, New York).

The nature of series [3]: In vivo testing in rats: growth, feed conversion and carcass composition. Set-up: species or system rat (male Charles River CD). Conditions: Test 1, in diet, dose equivalent to 20 ppm clenbuterol (clenbuterol: 10); for Gain: control 7.3; for Feed Intake: control 18.6; for Weight: control 191.8. From the text:
Eighty intact, male Charles River CD rats, 75-90 g, were housed and maintained on rat chow and water ad libitum. After four days acclimation ten rats per group were randomized by weight to treatment and pen. Compounds to be tested were premixed and added to ground rat chow using doses equivalent to 20 ppm of clenbuterol on a molecular weight basis. It had previously been determined 10 ppm of clenbuterol was the minimum dose needed to give maximum improvements in gain and feed conversion. Therefore, the results of any compound tested should cause responses similar to clenbuterol if the compound has half or more the activity of clenbuterol.

Series [4] relates to Isolated Chicken Hepatocytes. Put plainly: Inhibition of lipogenesis (14C acetate incorporation) in isolated chicken hepatocytes. In kind it is cell-based. To be noted: for inhibition at 0.01 µM / inhibition at 0.05 µM / inhibition at 0.25 µM: Gallus gallus, Hepatocyte, 2 h, Test 1, read-out: percent change compared to control, 14C acetate incorporation in fatty acids. The method, then: Determination of anti-lipogenic activity in hepatocytes
Hepatocytes were isolated from chicken liver using the procedure for adipocytes and incubated for 2 hours at 37° C. in the presence of ^14 C acetate and test compounds. […] Isoproterenol, at the same concentrations, was used as a positive control. After incubation, 8 ml Doles reagent (isopropanol:hexane:H2 SO4, 40:10:1) was added and incubation vials were shaken at room temperature for 30 minutes. Vial contents were poured into 50 ml screw-cap tubes. Vials were then rinsed with 6 ml hexane which was poured into the appropriate 50 ml tube. Tubes were shaken by hand, 10 ml H2 O was added, and tubes were shaken again. After phase separation, 2 ml of the upper (hexane) phase was removed to scintillation vials. Hexane was evaporated by a gentle air flow and the remaining lipids were resuspended in 10 ml Scinti Verse II. ^14 C was counted in a Packard liquid scintillation counter. Data are reported as CPM of ^14 C acetate incorporated into total lipids.

The next series concerns Rat Adipose Tissue. The series is described as follows: Stimulation of lipolysis (glycerol production) in chopped rat adipose tissue. In kind it is cell-based. To be noted: Rattus norvegicus, 2 h, Test 1, read-out: percent increase compared to control, glycerol production. The method, then: as §1
Whole adipose tissue from the rat (0.3 ml) or isolated adipocytes from sheep or swine (1 ml) were placed in plastic scintillation vials containing FSM (1.7 or 1 ml, respectively) and test compounds, and incubated at 37° C. for 2 hours. […] Isoproterenol, at the same concentrations, was used as a positive control. After incubation, media was removed and assayed for glycerol by a fluorometric modification of the method of Wieland (1974. Glycerol UV-method. pp. 1404. In: Bergmeyer (Ed.) Methods of Enzymatic Analysis. Verlag Chemie Weinham, Academic Press, New York). […]

For series [5], the system named is Isolated Ovine Adipocytes. Put plainly: Stimulation of lipolysis (glycerol production) in isolated ovine adipocytes. Type of series: cell-based, sheep. Conditions: Test 1. As to the method:
as §1, §2, §3

Series [6] in a line: Growth, feed conversion and carcass composition of broilers raised in floor pens for 7 weeks. Type of series: in vivo. Conditions: 7 weeks. The method, then: Compound V (bitolterol) was compared to clenbuterol for effects on growth, feed conversion and carcass composition of broilers raised in floor pens for 7 weeks. […] Bitolterol at the highest dose improved rate of gain 2.6% (P 0.01), feed conversion 3.8% (P 0.05) and carcass protein 4.9% (P 0.10).
Clenbuterol at 0.5 ppm in the diet was administered for 7 weeks to one group and only during the last 4 weeks to another group. […] Clenbuterol given for 7 weeks improved feed conversion 3.5% (P 0.05) and appeared to improve (not significant) rate of gain 0.4%, carcass weight 0.7% and carcass protein 4.0% and to decrease (not significant) carcass fat 7.1%.

A short description of series [7]: Toxicity (general statement).
[8] abbreviates: Ovis aries, Adipocyte, 2 h, read-out: percent increase compared to control, glycerol production.

As to `CC(C)(Cc1ccccc1)NCC(O)c1ccc(O)c(NS(C)(=O)=O)c1` (centres unmarked) [I, Zinterol], the “activity in all species under consideration” value in series [1] was “high activity in all species under consideration”. In series [2], the activation at 0.01 µM is 87%, the activation at 0.05 µM was 100% and the activation at 0.25 µM is 53%. Besides, in series [3], the Gain was 7.8 g/day; the “Feed Intake” value is given as 19.2 g/day; the Weight is on record as 199.1 g; the “Carcass Composition % of Change over Control, Fat” value is recorded as -10.4%. Moreover, the “Carcass Composition % of Change over Control, Protein” value in series [3] was found to be 7.3%. In addition, in series [4], the inhibition at 0.01 µM came out at 45.2%, the inhibition at 0.05 µM was found to be 61.3% and the inhibition at 0.25 µM was determined as 66%. In series [4] (chicken hepatocytes), the “antilipogenic activity relative to clenbuterol” value is listed as “greater than 125 times” and the “antilipogenic activity relative to isoproterenol” value is “five times”. In addition, in the series on Rat Adipose Tissue, the activation at 0.01 µM came out at 90%, the activation at 0.05 µM was found to be 129% and the activation at 0.25 µM came out at 281%. Further, the activation at 0.01 µM in series [5] (Ovis aries, Adipocyte, 2 h, 0.01 μM, read-out: percent increase compared to control, glycerol production) was 730%. In series [5] (setting [8]), the activation at 0.05 µM stood at 960%.
As for `Cc1ccc(C(=O)Oc2ccc(C(O)CNC(C)(C)C)cc2OC(=O)c2ccc(C)cc2)cc1` (centres unmarked) [Compound V, Bitolterol], in series [1], the “activity in all species under consideration” value is “high activity in all species under consideration”. Moreover, in series [1] (in vivo), the level of activity entry is listed as “high level of activity”. Besides, in series [2], the activation at 0.01 µM is 7%, the activation at 0.05 µM was 47% and the activation at 0.25 µM stood at 147%. Also, in series [6] (0.5, 1.0 and 2.0 ppm in diet), the “carcass fat (in words)” value is given as “did not reduce carcass fat”; the “rate of gain, feed conversion and carcass protein, dose response” value was “improved rate of gain, feed conversion and carcass protein in a dose-related manner”. Besides, the “improvement of rate of gain” value in series [6] (2.0 ppm in diet (highest dose), P 0.01) was determined as 2.6%. The “improvement of feed conversion” value in series [6] (2.0 ppm in diet (highest dose), P 0.05) worked out at 3.8%. Further, the “improvement of carcass protein” value in series [6] (2.0 ppm in diet (highest dose), P 0.10) is recorded as 4.9%. For the same compound, the “responses compared with clenbuterol at 0.5 ppm” value in series [6] (2.0 ppm in diet) is “better than those observed with clenbuterol at 0.5 ppm”. Further, in series [3], the Gain was found to be 7.3 g/day; the “Feed Intake” value is 18.7 g/day; the Weight was 192.2 g; the “Carcass Composition % of Change over Control, Fat” value is recorded as -4.3%. The “Carcass Composition % of Change over Control, Protein” value in series [3] is listed as 3.1%. In series [4], the inhibition at 0.01 µM worked out at 0%, the inhibition at 0.05 µM turned out to be 34% and the inhibition at 0.25 µM amounted to 64.6%. Also, in the series on Rat Adipose Tissue, the activation at 0.01 µM is 17%, the activation at 0.05 µM stood at 33% and the activation at 0.25 µM was 111%. Also, in series [7], the level of toxicity result was “very low level of toxicity”. Further, the activation at 0.05 µM in series [5] (setting [8]) came out at 435%. Moreover, in series [5] (0.01 μM), the “percent increase compared to control, glycerol production” value was “inactive”.

The record behind these values is patent publication US4847302A, “Use of certain compounds in livestock food as growth promotants for better feed utilization and improved carcass composition” (Merck & Co., Inc., priority 1988, dated 1989).
